Assay [1] deals with T1, BaPanK (type-III pantothenate kinase from Bacillus anthracis) (Bacillus anthracis, UniProt Q81VX4). The format is biochemical.
Assay [2] has as its target T1, BaPanK (type-III pantothenate kinase from Bacillus anthracis). The format is biochemical. The source holds these as a separate data set.

Each structure is given as a SMILES string. Read-outs that look alike come from different tables or passages of the source.

T1 sequence (Q81VX4 whole entry, looked up): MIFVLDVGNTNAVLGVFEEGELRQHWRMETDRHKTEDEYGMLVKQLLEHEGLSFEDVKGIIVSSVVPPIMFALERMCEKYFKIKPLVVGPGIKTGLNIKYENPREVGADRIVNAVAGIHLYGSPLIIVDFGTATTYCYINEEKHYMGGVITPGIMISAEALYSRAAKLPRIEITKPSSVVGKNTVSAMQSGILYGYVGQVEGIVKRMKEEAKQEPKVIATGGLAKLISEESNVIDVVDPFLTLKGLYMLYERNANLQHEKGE

As for `Nc1ncnc2c1ncn2[C@@H]1O[C@H](COP(=O)(O)OP(=O)(O)OP(=O)(O)O)[C@@H](O)[C@H]1O` [ATP], in assay [1], the Km stood at 510 µM.

`Nc1ncnc2c1ncn2[C@H]1C[C@H](O)[C@@H](COP(=O)(O)OP(=O)(O)OP(=O)(O)O)O1` [dATP]: the Km in assay [1] amounted to 138 µM.

Take `Nc1nc2c(ncn2[C@H]2C[C@H](O)[C@@H](COP(=O)(O)OP(=O)(O)OP(=O)(O)O)O2)c(=O)[nH]1` [dGTP]: the Michaelis constant (Km) in assay [1] is 117 µM.

Turning to `Cc1cn([C@H]2C[C@H](O)[C@@H](COP(=O)(O)OP(=O)(O)OP(=O)(O)O)O2)c(=O)[nH]c1=O` [dTTP], the Km in assay [1] came out at 723 µM.

`CC(C)(CO)[C@@H](O)C(=O)NCCC(=O)O` [pantothenate]: the Km in assay [2] is 275 µM.
